Measurements reported in US10100046B2, “Inhibitors of lysine specific demethylase-1” (Celgene Quanticel Research, Inc., priority 2014, dated 2018).

Legend:
[1] = tested on: THP-1 (AML) cells; assay: LSD1 CD11b Cellular Assay (flow cytometry); type: cell-based; conditions: Homo sapiens, 96 h; CD11b expression in THP-1 cells, 4 days
Protocol: To analyze LSD1 inhibitor efficacy in cells, a CD11b flow cytometry assay was performed. LSD1 inhibition induces CD11b expression in THP-1 (AML) cells which can be measured by flow cytometry. […] LSD1 test compounds were serially diluted in DMSO. The dilutions were added to each well accordingly to a final concentration of 0.2% DMSO. The cells were incubated at 37 degrees Celsius in 5% CO2 for 4 days. 250 μL of each well was transferred to a well in a 96 well round bottom plate. The plate was centrifuged at 1200 rpm at 4 degrees Celsius in a Beckman Coulter Alegra 6KR centrifuge for 5 minutes. The media was removed leaving the cells at the bottom of the wells. The cells were washed in 100 μL cold HBSS (Hank's Balanced Salt Solution) plus 2% BSA (Bovine Serum Albumin) solution and centrifuged at 1200 rpm at 4 degrees Celsius for 5 minutes. The wash was removed. […] The cells were centrifuged and washed two times in 100 μl HBSS plus 2% BSA. After the final spin the cells were resuspended in 100 μL HBSS plus 2% BSA containing 1 ug/mL DAPI (4′,6-diamidino-2-phenylindole). The cells were then analyzed by flow cytometry in a BD FACSAria machine. Cells were analyzed for CD11b expression. The percent of CD11b expressing cells for each inhibitor concentration was used to determine an IC50 curve for each compound analyzed.

[2] = molecular target: full-length human LSD1 (Homo sapiens (Human), UniProt O60341); assay: In Vitro Enzyme Inhibition Assay—LSD-1 (TR-FRET); type: biochemical; conditions: H3K4me1-biotin labeled peptide
Protocol: This assay determines the ability of a test compound to inhibit LSD1 demethylase activity. E. coli expressed full-length human LSD1 (Accession number 060341) was purchased from Active Motif (Cat#31334).
The enzymatic assay of LSD1 activity is based on Time Resolved-Fluorescence Resonance Energy Transfer (TR-FRET) detection. The inhibitory properties of compounds to LSD1 were determined in 384-well plate format under the following reaction conditions: 0.1-0.5 nM LSD1, 50 nM H3K4me1-biotin labeled peptide (Anaspec cat #64355), 2 μM FAD in assay buffer of 50 mM HEPES, pH7.3, 10 mM NaCl, 0.005% Brij35, 0.5 mM TCEP, 0.2 mg/ml BSA. Reaction product was determined quantitatively by TR-FRET after the addition of detection reagent Phycolink Streptavidin-allophycocyanin (Prozyme) and Europium-anti-unmodified histone H3 lysine 4 (H3K4) antibody (PerkinElmer) in the presence of LSD1 inhibitor such as 1.8 mM of Tranylcypromine hydrochloride (2-PCPA) in LANCE detection buffer (PerkinElmer) to final concentration of 12.5 nM and 0.25 nM respectively.
The assay reaction was performed according to the following procedure: 2 μL of the mixture of 150 nM H3K4me1-biotin labeled peptide with 2 μL of 11-point serial diluted test compound in 3% DMSO were added to each well of plate, followed by the addition of 2 μL of 0.3 nM LSD1 and 6 μM of FAD to initiate the reaction. The reaction mixture was then incubated at room temperature for one hour, and terminated by the addition of 6 μL of 1.8 mM 2-PCPA in LANCE detection buffer containing 25 nM Phycolink Streptavidin-allophycocyanin and 0.5 nM Europium-anti-unmodified H3K4 antibody. Enzymatic reaction is terminated within 15 minutes if 0.5 LSD1 enzyme is used in the plate. Plates were read by EnVision Multilabel Reader in TR-FRET mode (excitation at 320 nm, emission at 615 nm and 665 nm) after 1 hour incubation at room temperature. A ratio was calculated (665/615) for each well and fitted to determine inhibition constant (IC50).
The ability of the compounds disclosed herein to inhibit LSD1 activity was quantified and the respective IC50 value was determined. Table 3 provides the IC50 values of various substituted heterocyclic compounds disclosed herein.

Compound | IC50 [1] [µM] | IC50 [2] [µM]
Cn1ncc2cc(-c3sc(N4CC[C@@H]5CNC[C@@H]5CC4)nc3-c3ccc(C#N)cc3)ccc21 [Example 2, cis-4-(2-{decahydropyrrolo[3,4-d]azepin-6-yl}-5-(1-methyl-1H-indazol-5-yl)-1,3-thiazol-4-yl)benzonitrile] | < 0.1 | –
Cn1ccc2cc(-c3sc(N4CCC(N)CC4)nc3-c3ccc(C#N)cc3)cnc21 [Example 3, 4-[2-(4-aminopiperidin-1-yl)-5-{1-methyl-1H-pyrrolo[2,3-b]pyridin-5-yl}-1,3-thiazol-4-yl]benzonitrile] | < 0.1 | ≤ 0.1
Cn1ncc2cc(-c3sc(N4CCC5(CCNC5)CC4)nc3-c3ccc(C#N)cc3)ccc21 [Example 5, 4-(2-{2,8-diazaspiro[4.5]decan-8-yl}-5-(1-methyl-1H-indazol-5-yl)-1,3-thiazol-4-yl)benzonitrile] | 0.1 to 1 | ≤ 0.1
Cn1ncc2cc(-c3sc(N4CCC5NCCC5C4)nc3-c3ccc(C#N)cc3)ccc21 (stereo not shown) [Example 6] | < 0.1 | ≤ 0.1
Cn1ncc2cc(-c3sc(N4CCC5CNCC5C4)nc3-c3ccc(C#N)cc3)ccc21 (stereo not shown) [Example 7] | < 0.1 | ≤ 0.1
Cn1cnc2cc(-c3sc(N4CCC(N)CC4)nc3-c3ccc(C#N)cc3)ccc21 [Example 8, 4-[2-(4-aminopiperidin-1-yl)-5-(1-methyl-1H-1,3-benzodiazol-5-yl)-1,3-thiazol-4-yl]benzonitrile] | < 0.1 | ≤ 0.1
Cn1cnc2cc(-c3sc(N4CC[C@@H]5CNC[C@@H]5CC4)nc3-c3ccc(C#N)cc3)ccc21 [Example 10, cis-4-(2-{decahydropyrrolo[3,4-d]azepin-6-yl}-5-(1-methyl-1H-1,3-benzodiazol-5-yl)-1,3-thiazol-4-yl)benzonitrile] | < 0.1 | ≤ 0.1
Cn1ncc2cc(-c3sc(N4CC[C@@H]5CNC[C@@H]5CC4)nc3-c3ccc(C#N)cc3)cnc21 [Example 11, cis-4-(2-{decahydropyrrolo[3,4-d]azepin-6-yl}-5-{1-methyl-1H-pyrazolo[3,4-b]pyridin-5-yl}-1,3-thiazol-4-yl)benzonitrile] | < 0.1 | ≤ 0.1
N#Cc1ccc(-c2nc(N3CC[C@@H]4CNC[C@@H]4CC3)sc2-c2cnn(CC3CC3)c2)cc1 [Example 15, 4-{5-[1-(cyclopropylmethyl)-1H-pyrazol-4-yl]-2-{decahydropyrrolo[3,4-d]azepin-6-yl}-1,3-thiazol-4-yl}benzonitrile] | 0.1 to 1 | ≤ 0.1
Cc1ccc(-c2sc(C(=O)N3CCC[C@@H](N)C3)nc2-c2ccc(C#N)cc2)cc1 [Example 19, 4-{2-[(3R)-3-aminopiperidine-1-carbonyl]-5-(4-methylphenyl)-1,3-thiazol-4-yl}benzonitrile] | < 0.1 | ≤ 0.1
Cn1cnc2cc(-c3sc(C(=O)N4CCC[C@@H](N)C4)nc3-c3ccc(C#N)cc3)cnc21 [Example 20, 4-{2-[(3R)-3-aminopiperidine-1-carbonyl]-5-{3-methyl-3H-imidazo[4,5-b]pyridin-6-yl}-1,3-thiazol-4-yl}benzonitrile] | 0.1 to 1 | ≤ 0.1
N#Cc1ccc(-c2nc(C(=O)N3CCC[C@@H](N)C3)sc2-c2cnn(CC3CC3)c2)cc1 [Example 22, 4-{2-[(3R)-3-aminopiperidine-1-carbonyl]-5-[1-(cyclopropylmethyl)-1H-pyrazol-4-yl]-1,3-thiazol-4-yl}benzonitrile] | 0.1 to 1 | ≤ 0.1
N#Cc1ccc(-c2nc(N3CCC(N)CC3)cc(=O)n2-c2ccc(C3CC3)cc2)cc1F [Example 26, 4-[4-(4-Aminopiperidin-1-yl)-1-(4-cyclopropylphenyl)-6-oxopyrimidin-2-yl]-2-fluorobenzonitrile] | < 0.1 | ≤ 0.1

Now from value to compound:

IC50 [1] [µM] | IC50 [2] [µM] | Compound
< 0.1 | ≤ 0.1 | Cn1ncc2cc(-c3sc(N4CCC(N)CC4)nc3-c3ccc(C#N)cc3)ccc21 [Example 1, 4-[2-(4-aminopiperidin-1-yl)-5-(1-methyl-1H-indazol-5-yl)-1,3-thiazol-4-yl]benzonitrile]
< 0.1 | ≤ 0.1 | Cn1ncc2cc(-c3sc(N4CCC(N)CC4)nc3-c3ccc(C#N)cc3)cnc21 [Example 4, 4-[2-(4-aminopiperidin-1-yl)-5-{1-methyl-1H-pyrazolo[3,4-b]pyridin-5-yl}-1,3-thiazol-4-yl]benzonitrile]
< 0.1 | ≤ 0.1 | Cn1cnc2cc(-c3sc(N4CCC(N)CC4)nc3-c3ccc(C#N)cc3)cnc21 [Example 9, 4-[2-(4-aminopiperidin-1-yl)-5-{3-methyl-3H-imidazo[4,5-b]pyridin-6-yl}-1,3-thiazol-4-yl]benzonitrile]
< 0.1 | ≤ 0.1 | N#Cc1ccc(-c2nc(N3CCC(N)CC3)sc2-c2cnn(CC(F)(F)F)c2)cc1 [Example 12, 4-[2-(4-aminopiperidin-1-yl)-5-[1-(2,2,2-trifluoroethyl)-1H-pyrazol-4-yl]-1,3-thiazol-4-yl]benzonitrile]
< 0.1 | ≤ 0.1 | N#Cc1ccc(-c2nc(N3CC[C@@H]4CNC[C@@H]4CC3)sc2-c2cnn(CC(F)(F)F)c2)cc1 [Example 13, 4-(2-{decahydropyrrolo[3,4-d]azepin-6-yl}-5-[1-(2,2,2-trifluoroethyl)-1H-pyrazol-4-yl]-1,3-thiazol-4-yl)benzonitrile]
0.1 to 1 | ≤ 0.1 | N#Cc1ccc(-c2nc(N3CCC(N)CC3)sc2-c2cnn(CC3CC3)c2)cc1 [Example 14, 4-[2-(4-aminopiperidin-1-yl)-5-[1-(cyclopropylmethyl)-1H-pyrazol-4-yl]-1,3-thiazol-4-yl]benzonitrile]
< 0.1 | ≤ 0.1 | Cn1cnc2cc(-c3sc(C(=O)N4CCC[C@@H](N)C4)nc3-c3ccc(C#N)cc3)ccc21 [Example 16, 4-{2-[(3R)-3-aminopiperidine-1-carbonyl]-5-(1-methyl-1H-1,3-benzodiazol-5-yl)-1,3-thiazol-4-yl}benzonitrile]
< 0.1 | ≤ 0.1 | Cn1cnc2cc(-c3sc(C(=O)N4CCC[C@H](N)C4)nc3-c3ccc(C#N)cc3)ccc21 [Example 17, 4-{2-[(3 S)-3-aminopiperidine-1-carbonyl]-5-(1-methyl-1H-1,3-benzodiazol-5-yl)-1,3-thiazol-4-yl}benzonitrile]
< 0.1 | ≤ 0.1 | Cn1cnc2cc(-c3sc(C(=O)N4CCC(N)CC4)nc3-c3ccc(C#N)cc3)ccc21 [Example 18, 4-[2-(4-aminopiperidine-1-carbonyl)-5-(1-methyl-1H-1,3-benzodiazol-5-yl)-1,3-thiazol-4-yl]benzonitrile]
< 0.1 | ≤ 0.1 | N#Cc1ccc(-c2nc(C(=O)N3CCC[C@@H](N)C3)sc2-c2cnn(CC(F)(F)F)c2)cc1 [Example 21, 4-{2-[(3R)-3-aminopiperidine-1-carbonyl]-5-[1-(2,2,2-trifluoroethyl)-1H-pyrazol-4-yl]-1,3-thiazol-4-yl}benzonitrile]
– | ≤ 0.1 | COc1ccc(-n2c(-c3ccc(C#N)c(F)c3)nc(N3CCC(N)CC3)cc2=O)cc1 [Example 32, 4-[4-(4-aminopiperidin-1-yl)-1-(4-methoxyphenyl)-6-oxopyrimidin-2-yl]-2-fluorobenzonitrile]
